What was measured:
[1] = ORAC (oxygen radical absorbance capacity) assay; conditions: average of 25 and 12.5 μM compound; mean, SEM, n = 6
Procedure: ORAC assay kits were purchased from Cell Biolabs. Assays were performed per the manufacturer’s instructions for lipophilic samples with minor modifications. DMSO stock solutions of compounds were diluted in an anaerobic glovebox to final concentrations of 25 and 12.5 μM in triplicate. A standard curve of Trolox® between 0–100 μM in triplicate per concentration was also generated on each assay plate. Diluted compounds and standards were removed from the glovebox and reactions initiated by addition of aerobic fluorescein reagent and radical initiator. Fluorescein fluorescence was monitored at excitation wavelength of 480 nm and emission wavelength of 520 nm every minute for one hour. AUC analysis was performed as described in the kit protocol. The “Trolox equivalents” at each concentration of test compound were calculated and the average Trolox equivalents at the two compound concentrations are presented. The errors were determined by propagating errors from the SEMs of the triplicate determinations to the averages across the two triplicate determinations.

[2] = target: T1, Rabbit 15-lipoxygenase (rLOX15) (Oryctolagus cuniculus, UniProt P12530); test: Lipoxygenase enzyme inhibition assay; type: biochemical; conditions: rabbit 15-LO
T1 construct: purchased Enzo Life Sciences, Inc. BML-PL015
T1 sequence (P12530 1-663): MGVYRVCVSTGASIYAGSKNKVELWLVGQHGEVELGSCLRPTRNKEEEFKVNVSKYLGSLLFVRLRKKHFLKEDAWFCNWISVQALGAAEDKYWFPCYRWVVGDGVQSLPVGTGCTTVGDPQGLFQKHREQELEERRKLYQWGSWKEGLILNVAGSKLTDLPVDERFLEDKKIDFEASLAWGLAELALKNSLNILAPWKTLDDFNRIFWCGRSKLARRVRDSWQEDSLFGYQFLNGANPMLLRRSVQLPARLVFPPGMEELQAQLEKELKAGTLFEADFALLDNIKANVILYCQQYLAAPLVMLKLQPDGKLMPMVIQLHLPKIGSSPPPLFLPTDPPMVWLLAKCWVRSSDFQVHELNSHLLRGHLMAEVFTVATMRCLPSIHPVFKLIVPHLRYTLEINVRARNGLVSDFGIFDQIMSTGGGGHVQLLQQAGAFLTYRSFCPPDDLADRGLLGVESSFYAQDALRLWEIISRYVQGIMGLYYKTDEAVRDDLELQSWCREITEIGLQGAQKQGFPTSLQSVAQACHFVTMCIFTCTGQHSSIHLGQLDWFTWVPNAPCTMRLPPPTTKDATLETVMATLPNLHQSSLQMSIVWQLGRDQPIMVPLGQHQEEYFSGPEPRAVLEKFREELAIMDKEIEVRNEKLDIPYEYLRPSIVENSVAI
Procedure: Rabbit 15-lipoxygenase (rLOX15, part number BML-PL015, lot number 3-P9009a) was obtained from Enzo Life Sciences, Inc. Sodium cholate (part number C6445, lot number 094K0209) was obtained from Sigma-Aldrich.
Stock solutions of test compounds were prepared in DMSO and then diluted to final assay concentrations in cholate mix such that final cholate and DMSO concentrations were maintained at 0.2%.

[3] = test system: Q7 cells; test: Cellular lipid oxidation assay (BODIPY 581/591 C11, RSL3-treated Q7 cells); type: cell-based, mouse; conditions: RSL3 2 μM, 6-point titration, time-lapse microscopy
Procedure: Ferroptosis was induced by RSL3 (2 μM final concentration) in Q7 cells as described above. The protective activity of co-treated compounds was assessed also as described above. The rate of cellular lipid oxidation after GPX4 inhibition was assessed by monitoring the time-dependent changes in green fluorescence of cells pre-labeled with BODIPY™ 581/591 C11 dye (5 μM, 30-minute labeling period; Thermo Fisher/Invitrogen) using the IncuCyte S3 live-cell imaging apparatus (Sartorius) using a 10x objective. Cells (three images per field; at least three replicate wells per condition) were imaged once hourly for up to 18 hours after compound and RSL3 addition. Quantification of cell images was performed using the IncuCyte Zoom software using the Basic Analyzer tool which utilized an algorithm that calculated the total green-positive area per well where “green-positive” was defined as 1.45 times the local background-subtracted fluorescent signal. After a 2-3-hour lag period post-RSL3 treatment, the cellular green fluorescence signal began increasing. The rate of change in total green-positive area per well from 3–9 hours post-compound treatment was calculated, then expressed relative to that observed in the RSL3-only control treatment group, which was defined as 100%.

[4] = test system: Q7 cells; test: Intracellular quantification of αT, αTQ and αTHQ in Q7 cells (LC-MS/MS, succinate capping); conditions: all cases tested (basal, αT- or αTQ-supplemented)
[5] = target: T2, Soybean 15-lipoxygenase (SLO) (Glycine max, UniProt P08170); test: EPR spectroscopy of lipoxygenase active-site iron redox state; type: biochemical; conditions: SLO oxidised with lipid-OOH set to 100% Fe3+; addition of compound
T2 construct: purchased Cayman Chemical 60700
T2 sequence (P08170 1-839): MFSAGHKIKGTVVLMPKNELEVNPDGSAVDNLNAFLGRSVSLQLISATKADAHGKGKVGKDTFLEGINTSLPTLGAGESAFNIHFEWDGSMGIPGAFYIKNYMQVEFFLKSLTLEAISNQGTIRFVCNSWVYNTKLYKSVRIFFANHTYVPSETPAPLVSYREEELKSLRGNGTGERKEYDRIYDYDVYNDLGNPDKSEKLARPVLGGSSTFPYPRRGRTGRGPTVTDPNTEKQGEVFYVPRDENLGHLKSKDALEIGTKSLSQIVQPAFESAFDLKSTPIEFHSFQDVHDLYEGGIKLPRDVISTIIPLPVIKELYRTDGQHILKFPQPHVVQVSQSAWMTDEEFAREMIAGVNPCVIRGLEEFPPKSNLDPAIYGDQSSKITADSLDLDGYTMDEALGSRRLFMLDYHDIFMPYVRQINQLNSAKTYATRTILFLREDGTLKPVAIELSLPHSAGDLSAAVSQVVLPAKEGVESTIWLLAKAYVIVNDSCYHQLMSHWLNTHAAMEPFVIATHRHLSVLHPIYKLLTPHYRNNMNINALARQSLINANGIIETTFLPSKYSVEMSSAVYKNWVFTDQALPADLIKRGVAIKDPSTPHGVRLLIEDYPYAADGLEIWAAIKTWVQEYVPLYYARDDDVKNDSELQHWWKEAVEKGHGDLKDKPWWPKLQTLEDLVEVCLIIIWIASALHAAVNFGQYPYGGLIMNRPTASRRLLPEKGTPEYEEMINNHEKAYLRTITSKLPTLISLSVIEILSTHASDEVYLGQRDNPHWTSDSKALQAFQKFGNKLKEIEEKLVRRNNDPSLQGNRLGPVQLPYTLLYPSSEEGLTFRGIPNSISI
Procedure: Lipoxygenase: Soybean 15-lipoxygenase (SLO) was buffer exchanged into 50 mM borate buffer, pH 9.0 containing 10% (v/v) glycerol. The resulting protein solution was concentrated to approximately 100 μM, based upon the supplier’s activity per mL and specific activity per mg. The active-site iron oxidation state was further evaluated by EPR under three treatment conditions: 1) No treatment, 2) oxidation with 3-fold molar excess of lipid hydroperoxide (final concentration of 300 μM) from an ethanol stock, 3) oxidation with 3-fold molar excess of lipid hydroperoxide followed by 10-fold molar excess of αTHQ or αT3HQ (final concentration of 1 mM) from a DMSO stock. All samples contained the same final concentrations of ethanol and DMSO as sample 3. The EPR spectra of buffer alone were also evaluated to allow for baseline subtraction.
CW-EPR spectra were recorded at 150 K on a Bruker ELEXYS E540 spectrometer fitted with an X-band microwave bridge, a Super High Sensitivity Resonator (SHQ), and a Nitrogen VT apparatus. The spectra were recorded at 9.43 GHz with 1.002 mW microwave power, 10 G modulation amplitude, 100 kHz modulation frequency, 25 scans.

[6] = test system: Mouse striatal Q7 cells (STHdhQ7/Q7); test: RSL3 ferroptosis cell rescue (cellular survival assay, CellTiter-Glo)
[7] = Radical-trapping antioxidant (RTA) activity assay in DOPC liposomes; conditions: 50 μM compound, 2 mol% in DOPC liposomes, BODIPY 581/591 C11 quenching; liposome-only control = 1

SMILES: Cc1c(C)c(O)c(CC[C@](C)(O)CCC[C@H](C)CCC[C@H](C)CCCC(C)C)c(C)c1O [αTHQ, α-tocopherol hydroquinone]
- ORAC Antioxidant Activity Assay Trolox Equiv. [1]: 0.106 Trolox Equiv.
- 15-LO inhibitory potency fold compared with αTQ, αT, or αTCC [2]: > 40 fold
- IC50 ([2]; 50 μM arachidonic acid substrate): 2450 nM
- activity at 100 µM ([2]; compound 100 μM, read-out: 15-Lipoxygenase Enzyme Assay % activity at 100 μM): 15%
- effect on RSL3-induced lipid oxidation (BODIPY 581/591 C11 oxidation) [3]: prevented
- cellular αTHQ exposures exceed those of αTQ [4]: 3- to 4 fold
- decrease in the SLO-Fe3+ signal [5]: 50%
- EC50 ([6]; Mus musculus, 18 h, read-out: RSL3 Ferroptosis Cell Assay Average EC50, Q7 cells, RSL3 2 μM, 18 h co-treatment, CellTiter-Glo 2.0): 90 ± 30 nM
- fold more potent than αT in preventing ferroptotic cell death ([6]; Q7 cells, RSL3, EC50 ratio vs αT): 57 fold
- Radical Trapping Assay AUC (Rel. Control) [7]: 1.855

Reference: PMC6093661, “Vitamin E hydroquinone is an endogenous regulator of ferroptosis via redox control of 15-lipoxygenase” (PLoS ONE, 2018)
